# Test results: patent publication US20250388565A1, “ESTROGEN RECEPTOR ALPHA DEGRADERS AND METHODS OF USE THEREOF” (Relay Therapeutics, Inc., priority 2022, published 2025)
# Target: T1, ERα protein (HiBiT-tagged) in ESR1_HiBiT KI MCF7 cells (Homo sapiens, UniProt P03372)
# T1 sequence (P03372 1-595): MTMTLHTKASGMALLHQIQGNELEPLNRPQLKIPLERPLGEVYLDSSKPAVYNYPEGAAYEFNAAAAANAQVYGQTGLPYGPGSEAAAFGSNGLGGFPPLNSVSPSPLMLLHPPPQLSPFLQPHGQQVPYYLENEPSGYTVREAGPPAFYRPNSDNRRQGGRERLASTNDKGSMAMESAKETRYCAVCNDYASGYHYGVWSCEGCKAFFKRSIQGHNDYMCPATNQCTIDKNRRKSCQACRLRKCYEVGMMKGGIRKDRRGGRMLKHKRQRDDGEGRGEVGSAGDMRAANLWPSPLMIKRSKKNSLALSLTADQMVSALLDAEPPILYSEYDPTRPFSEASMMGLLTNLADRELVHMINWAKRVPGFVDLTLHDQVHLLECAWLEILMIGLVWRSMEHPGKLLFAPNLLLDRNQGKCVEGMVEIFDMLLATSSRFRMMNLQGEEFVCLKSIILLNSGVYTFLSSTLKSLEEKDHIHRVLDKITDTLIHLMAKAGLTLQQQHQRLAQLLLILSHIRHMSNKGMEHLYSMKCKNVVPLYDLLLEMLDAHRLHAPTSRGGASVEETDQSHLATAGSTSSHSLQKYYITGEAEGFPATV
# Assay: Nano Glo HiBiT Lytic Degradation Assay
# Assay type: cell-based
# Details: 6 hours with compound, 14-point dose response 1:3, bell-shape curve fit, half-maximal effect of first Hill model, read-out: MCF7 ESR1 HiBiT - (DC50)
# Procedure: Selected compounds of the present disclosure were tested in a Nano Glo HiBiT Lytic Degradation Assay to measure the level of ERα protein degradation in MCF7 cells.
# Cell culture: ESR1_HiBiT KI MCF7 cells were maintained in growth media without antibiotics. Cells were maintained in exponential growth phase, between 40% and 90% confluency.
# Cell seeding: Cells were counted using a Vi-Cell and seeded in a 384-well flat-bottom microplate (cell culture-treated) at 4000 cells/well in 25 μL of growth medium using a BioTek MultiFlo Multimode Dispenser. Plates were incubated for 24 h at 37° C., 5% CO2, >95% relative humidity.
# Compound preparation: Compounds were screened as 14-point dose response curves 1:3 dilutions. DMSO is used as the vehicle control and all wells were normalized to the same final DMSO concentration (0.1% v/v). Compounds were dosed using an Echo Acoustic Liquid Handler, 25 nL of 1000× (10 mM top concentration) DMSO stock/well. Cells were incubated with compounds for 6 hours at 37° C., 5% CO2, >95% relative humidity. Each compound was run in duplicate.
# Nano Glo HiBiT Lytic Degradation Assay: HiBiT-tagged ERα protein levels were quantified using a Nano Glo HiBiT Lytic Degradation Assay following the manufacturer's protocol. Briefly, the Nano-Glo® HiBiT Lytic Reagent was prepared by diluting the LgBiT Protein reagent (1:100) and the Nano-Glo® HiBiT Lytic Substrate (1:50) into Nano-Glo® HiBiT Lytic Buffer at room temperature. The 384-well microplate were equilibrated to room temperature and 25 μL of Nano-Glo® HiBiT Lytic Reagent was added to each well. Samples were mixed by placing the 384-well microplate on an orbital shaker for 10 minutes. Luminescence was measured using an EnVision 2105 Multimode Plate Reader.
# Data processing and analysis: Background signal (wells containing growth medium without cells) was subtracted from individual relative light units (RLU) values and the resulting values were normalized to the DMSO control well values. Dose responses were analyzed with Genedata Screener® using a bell-shape curve fit and the concentrations corresponding to the half-maximal effect of the first Hill model were used as DC50 values.
row,Structure (SMILES),DC50 [nM]
1,"O=C1CC[C@H](N2Cc3cc(N4CCN(CC5CCN(c6ccc([C@H]7c8ccc(O)cc8CO[C@H]7C7CC7)cc6)CC5)CC4)ccc3C2=O)C(=O)N1 (single isomer, unassigned) [Compound I-243]",3
2,O=C1CC[C@H](N2Cc3cc(N4CCN(CC5CCN(c6ccc([C@H]7c8ccc(O)cc8CC[C@H]7C7CCC8(CC7)CC8)cc6)CC5)CC4)ccc3C2=O)C(=O)N1 [Compound I-145],≥ 10000
3,"O=C1CC[C@@H](N2Cc3cc(N4CCC(CN5CCC(n6cc([C@@H]7c8ccc(O)cc8CC[C@@H]7c7ccccc7)cn6)CC5)CC4)ccc3C2=O)C(=O)N1 (single isomer, unassigned) [Compound I-48]",≥ 10000
4,"O=C1CC[C@H](N2Cc3cc(N4CCN(CC5CCN(c6ccc([C@@H]7c8ccc(O)cc8CO[C@H]7C7CCCCC7)cc6)CC5)CC4)ccc3C2=O)C(=O)N1 [Compound I-249, (S)-3-(5-(4-((1-(4-((3S,4R)-3-cyclohexyl-7-hydroxyisochroman-4-yl)phenyl)piperidin-4-yl)methyl)piperazin-1-yl)-1-oxoisoindolin-2-yl)piperidine-2,6-dione]",0.61
5,"O=C1CC[C@H](N2Cc3cc(N4CCN(CC5CCN(c6ccc([C@@H]7c8ccc(O)cc8CO[C@@H]7c7ccccc7)cc6)CC5)CC4)ccc3C2=O)C(=O)N1 [Compound I-3, (S)-3-(5-(4-((1-(4-((3S,4R)-7-hydroxy-3-phenylisochroman-4-yl)phenyl)piperidin-4-yl)methyl)piperazin-1-yl)-1-oxoisoindolin-2-yl)piperidine-2,6-dione]",0.27
6,"O=C1CCC(c2cccc(N3CC[C@H]4[C@@H]3CCN4CC3CCN(c4ccc([C@@H]5c6ccc(O)cc6CC[C@@H]5c5ccccc5)cc4)CC3)c2)C(=O)N1 (stereo partly drawn) [Compound I-179, 3-(3-((3aS,6aS)-4-((1-(4-((1R,2S)-6-hydroxy-2-phenyl-1,2,3,4-tetrahydronaphthalen-1-yl)phenyl)piperidin-4-yl)methyl)hexahydropyrrolo[3,2-b]pyrrol-1 (2H)-yl)phenyl)piperidine-2,6-dione]",34
7,"O=C1CCC(c2ccc(N3CCN(CCC4CCN(c5ccc([C@@H]6c7ccc(O)cc7CC[C@@H]6c6ccccc6)cc5)CC4)CC3)cc2)C(=O)N1 (single isomer, unassigned) [Compound I-8]",≥ 10000
8,"C[C@@H](C1CC1)[C@H]1CC(F)(F)c2cc(O)ccc2[C@H]1c1ccc(N2CCC(CN3CCN(c4ccc5c(c4)CN([C@H]4CCC(=O)NC4=O)C5=O)CC3)CC2)cc1 (single isomer, unassigned) [Compound I-227]",4
9,"O=C1CC[C@H](N2Cc3cc(N4CCN(CC5CCN(c6ccc([C@@H]7c8ccc(O)cc8CC[C@@H]7c7ccc(O)cc7)cc6)CC5)CC4)ccc3C2=O)C(=O)N1 [Compound I-131, (35)-3-[5-[4-[[1-[4-[(1R, 2S)-6-hydroxy-2-(4-hydroxyphenyl)tetralin-1-yl]phenyl]-4-piperidyl]methyl]piperazin-1-yl]-1-oxo-isoindolin-2-yl]piperidine-2,6-dione]",0.03
10,"O=C1CC[C@H](N2Cc3cc(N4CCN(CC5CCN(c6ccc([C@H]7c8ccc(O)cc8CC[C@H]7C7CCCCC7)c(F)c6)CC5)CC4)ccc3C2=O)C(=O)N1 [Compound I-136, (S)-3-(5-(4-((1-(4-((1R,2S)-2-cyclohexyl-6-hydroxy-1,2,3,4-tetrahydronaphthalen-1-yl)-3-fluorophenyl)piperidin-4-yl)methyl)piperazin-1-yl)-1-oxoisoindolin-2-yl)piperidine-2,6-dione]",≥ 10000

# Continued, values first:
row,DC50 [nM],Structure (SMILES)
1,≥ 10000,O=C1CC[C@H](N2Cc3cc(N4CCN(CC5CCN(c6ccc([C@H]7c8ccc(O)cc8CC[C@H]7c7ccccc7)nc6)CC5)CC4)ccc3C2=O)C(=O)N1 [II-77]
2,0.13,"Cc1cc(N2CCC3(CCN(CC4CCN(c5ccc([C@@H]6c7ccc(O)cc7CO[C@@H]6c6ccccc6)cc5)CC4)C3)CC2)ccc1N1CCC(=O)NC1=O [Compound I-392, 1-(4-(2-((1-(4-((3S,4R)-7-hydroxy-3-phenylisochroman-4-yl)phenyl)piperidin-4-yl)methyl)-2,8-diazaspiro[4.5]decan-8-yl)-2-methylphenyl)dihydropyrimidine-2,4 (1H,3H)-dione]"
3,≥ 10000,O=C1CC[C@H](N2Cc3cc(N4CCN(CCC5CCN(c6ccc([C@H]7c8ccc(O)cc8CC[C@H]7c7ccccc7)cc6)CC5)CC4)ccc3C2=O)C(=O)N1 [II-98]
4,0.17,"Cc1cc(F)ccc1[C@H]1OCc2cc(O)ccc2[C@H]1c1ccc(N2CCC(CN3CCN(c4ccc5c(c4)CN([C@H]4CCC(=O)NC4=O)C5=O)CC3)CC2)cc1 [Compound I-371, (S)-3-(5-(4-((1-(4-((3S,4R)-3-(4-fluoro-2-methylphenyl)-7-hydroxyisochroman-4-yl)phenyl)piperidin-4-yl)methyl)piperazin-1-yl)-1-oxoisoindolin-2-yl)piperidine-2,6-dione]"
5,≥ 10000,"O=C1CC[C@H](N2Cc3cc(N4CCN(C[C@@H]5CCN(c6ccc([C@@H]7c8ccc(O)cc8CC[C@@H]7c7ccccc7)cc6)C5)CC4)ccc3C2=O)C(=O)N1 (single isomer, unassigned) [II-32]"
6,0.99,"Cn1nc(N2CCC(=O)NC2=O)c2ccc(N3CCN(CC4CCN(c5ccc([C@@H]6c7ccc(O)cc7CO[C@@H]6c6ccccc6)cc5)CC4)CC3)cc21 [Compound I-396, 1-(6-(4-((1-(4-((3S,4R)-7-hydroxy-3-phenylisochroman-4-yl)phenyl)piperidin-4-yl)methyl)piperazin-1-yl)-1-methyl-1H-indazol-3-yl)dihydropyrimidine-2,4 (1H,3H)-dione]"
7,9,"O=C1CC[C@H](N2Cc3cc(N4CCN(CC5CCN(c6ccc([C@H]7c8ccc(O)cc8C(F)(F)C[C@H]7c7ccccc7)cc6F)CC5)CC4)ccc3C2=O)C(=O)N1 [Compound I-328, (S)-3-(5-(4-((1-(4-((1S,2R)-4,4-difluoro-6-hydroxy-2-phenyl-1,2,3,4-tetrahydronaphthalen-1-yl)-2-fluorophenyl)piperidin-4-yl)methyl)piperazin-1-yl)-1-oxoisoindolin-2-yl)piperidine-2,6-dione]"
8,0.16,"O=C1CC[C@H](N2Cc3cc(N4CCN(CC5CCN(c6ccc([C@@H]7c8ccc(O)cc8CO[C@@H]7c7ccccc7)cc6F)CC5)CC4)ccc3C2=O)C(=O)N1 (single isomer, unassigned) [Compound I-381]"
9,0.75,O=C1CC[C@H](N2Cc3cc(N4CCN(CC5CCN(c6ccc([C@@H]7c8ccc(O)cc8CC[C@@]78CCc7ccccc78)cc6)CC5)CC4)ccc3C2=O)C(=O)N1 [Compound I-260]
10,2,"O=C1CCC(N2Cc3cc([C@@H]4CCN(CC5CCN(c6ccc([C@@H]7c8ccc(O)cc8CC[C@@H]7c7ccccc7)cc6)CC5)C[C@H]4F)ccc3C2=O)C(=O)N1 (single isomer, unassigned) [II-88]"
11,0.88,O=C1CC[C@@H](N2Cc3cc(N4CCN(CC5CCN(c6ccc([C@@H]7c8ccc(O)cc8CC[C@@H]7c7ccc(F)cc7)cc6)CC5)CC4)ccc3C2=O)C(=O)N1 [II-110]
12,0.3,"Cn1c(=O)n([C@H]2CCC(=O)NC2=O)c2ccc(N3CCN(CC4CCN(c5ccc([C@@H]6c7ccc(O)cc7C(F)(F)C[C@@H]6c6ccccc6)cc5)CC4)CC3)cc21 (single isomer, unassigned) [Compound I-277]"
